Laboratory results as given in US20130196320A1, “METHOD FOR IMPROVING CLEAVAGE OF DNA BY ENDONUCLEASE SENSITIVE TO METHYLATION” (CELLECTIS, priority 2010, published 2013).

Assays:
Assay type in all cases: cell-based, human
[1] = test system: XPC4 target CpG motives in 293H cells; assay: DNA methylation of XPC4 target by bisulfite treatment and sequencing, 5-aza-2-deoxycytidine treatment; settings: for amount of unmethylated C, % of total: one of the two CpG of XPC4 target; for amount of unmethylated C: the other CpG of XPC4 target
Procedure: FIG. 9: Chromatograms of sequencing reactions at the XPC4 target locus, made after bisulfite treatment. Cells were pre-treated with 5-aza-2-deoxycytidine at 0.2 μM or 1 μM 48 hours before transfection with the XPC4 meganuclease or with an empty vector. The treatment was maintained 48 hours post-transfection. As a control, we used cells not treated with 5-aza-2-deoxycytidine (NT). Two days post transfection, genomic DNA was extracted and treated with bisulfite, which converts cytosine, but not 5-methylcytosine into uracil. DNA from the XPC4 target locus region was amplified by PCR, and sequenced. Sequence of the XPC4 target is indicated on top (XPC4 target), with the two CpG motives being underlined. On the chromatograms, 5-methyl-cytosines appear as cytosines (C), and non methylated cytosines (converted to uracil) as thymines (T). In the presence of 5-aza-2-deoxycytidine, a fraction of the CpG motives is demethylated, resulting in a dual C/T peak.
The human 293H cells (ATCC) were plated at a density of 1.2×10^6 cells per 10 cm dish in complete medium (DMEM supplemented with 2 mM L-glutamine, penicillin (100 IU/ml), streptomycin (100 μg/ml), amphotericin B (Fongizone: 0.25 μg/ml, Invitrogen-Life Science) and 10% FBS) supplemented with 5-aza-deoxycytidine. The next day, cells were transfected with 3 μg of meganuclease expression vector in the presence of 5-aza-deoxycytidine and Lipofectamine 2000 transfection reagent (Invitrogen) according to the manufacturer's protocol.
Cells were pre-treated with 5-aza-deoxycytidine at 0.2 μM or 1 μM 48 hours before transfection and the treatment was maintained 48 hours post-transfection. As a control, cells not treated with 5-aza-2-deoxycytidine (NT) were used. Extraction of genomic DNA was performed 48 hours after transfection.
To assess the level DNA methylation, DNA sequencing was performed after a bisulfite treatment according to the instructions of the manufacturer (EZ DNA methylation-Gold Kit, Zymo Research). After genomic DNA extraction, the XPC4 target locus was amplified by PCR with specific primers

[2] = test system: XPC4 endogenous locus in 293H cells; assay: Gene targeting induced by XPC4 meganuclease at its endogenous locus, PCR on cellular clones; settings: for targeted events, % of the transfected cells: XPC4 meganuclease + repair matrix, n=2
Procedure: (§1) FIG. 11: XPC4 meganuclease efficiency is impaired by DNA methylation in vivo. 293H cells were co-transfected with 3 μg of XPC4 meganuclease expressing vector or empty vector and 2 μg of DNA repair matrix vector in presence or absence of DNA methylation inhibitor (5-aza-2′deoxycytidine). 480 individual cellular clones were analyzed in each condition for the presence of targeted events using specific PCR amplification.
Cell culture as well as general transfection conditions were described in “material and methods” section of part b) above. For this assay, 293H cells were co-transfected with 3 μg of XPC4 meganuclease expressing vector or empty vector and 2 μg of DNA repair matrix. The DNA repair matrix consists of a left and right arms corresponding to isogenic sequences of 1 kb located on both sides of the meganuclease recognition site. These two homology arms are separated by a heterologous fragment of 29 bp (sequence: […], SEQ ID NO: 64). Two days post-transfection, cells were replated in 10 cm dish. Two weeks later, individual clones were picked and subsequently amplified in 96 wells plates for 3 days. 480 individual cellular clones were then analyzed per condition. DNA extraction was performed with the ZR-96 genomic DNA kit (Zymo research) according to the supplier's protocol. The detection of targeted DNA matrix integrations was performed by specific PCR amplification using the primers: XPC4_F4: 5′-[…]-3′ (SEQ ID NO: 41) (located within the 29 bp of heterologous sequence, i.e. SEQ ID NO: 64) and XPC4_R4: 5′-[…]-3′ (located on the genomic sequence outside of the homology) (SEQ ID NO: 42).

[3] = test system: ADCY9 endogenous locus in 293H cells; assay: Meganuclease-induced gene targeting assay, ADCY9 locus; settings: for targeted events, % of the transfected cells: ADCY9 meganuclease + repair matrix, n=2
Procedure: as §1, with “FIG. 14: ADCY9” for “FIG. 11: XPC4”, “with 5” for “with 3”
Cell culture as well as general transfection conditions were described in Example 4. For this assay, 293H cells were co-transfected with 5 μg of ADCY9 meganuclease expressing vector and 2 μg of DNA repair matrix. The DNA repair matrix consists of a left and right arms corresponding to isogenic sequences of 1 kb located on both sides of the meganuclease recognition site. These two homology arms are separated by a heterologous fragment of 29 bp (sequence: […], SEQ ID NO: 64). Two days post-transfection, cells were replated in 10 cm dish. Two weeks later, individual clones were picked and subsequently amplified in 96 wells plate for 3 days. 480 individual cellular clones were then analyzed per condition. DNA extraction was performed with the ZR-96 genomic DNA kit (Zymo research) according to the supplier's protocol. The detection of targeted DNA matrix integrations was performed by specific PCR amplification using the primers ADCY9_F4: 5′-[…]-3′ (specific to the 29 bp of heterologous sequence) (SEQ ID NO: 50) and ADCY9_R4: 5′-[…]-3′ (specific to a genomic sequence located outside of the homology arm) (SEQ ID NO: 51).

[4] = absence of meganuclease, with 5-aza-2′deoxycytidine treatment
[5] = absence of 5-aza-2′deoxycytidine
[6] = with 5-aza-2′deoxycytidine (0.2 μM) vs without

Molecule: Nc1ncn([C@H]2C[C@H](O)[C@@H](CO)O2)c(=O)n1 [5-aza-2′deoxycytidine, reference compound]
- amount of unmethylated C, % of total ([1]; 0.2 μM): 25%
- amount of unmethylated C, % of total ([1]; 1 μM): 36%
- amount of unmethylated C ([1]; 0.2 μM): 35%
- amount of unmethylated C ([1]; 1 μM): 45%
- targeted events [2, 4]: no targeted events could be detected
- targeted events [3, 4]: no targeted events could be detected

B1: XPC4: engineered meganuclease (SEQ ID NO: 2) designed to cleave xeroderma pigmentosum group C gene (XPC) (protein)
chain: MANTKYNEEFLLYLAGFVDGDGSIIAQIKPNQSHKFKHALQLTFKVTQKTQRRWFLDKLVDEIGVGYVQDSGSVSNYILSEIKPLHNFLTQLQPFLELKQKQANLALKIIEQLPSAKESPDKFLEVCTWVDQVAALNDSKTRKTTSETVRAVLDSLSEKKKSSPAAGGSDKYNQALSKYNQALSKYNQALSGGGGSNKKFLLYLAGFVDSDGSIIAQIKPNQSHKFKHQLSLAFQVTQKTQRRWFLDKLVDRIGVGYVRDRGSVSDYILSKIKPLHNFLTQLQPFLKLKQKQANLVLKIIEQLPSAKESPDKFLEVCTWVDQVAALNDSKTRKTTSETVRAVLDSLSEKKKSSP
- targeted events, % of the transfected cells ([2]; 5-aza-2′deoxycytidine (0.2 μM)): 12.5%±0.26
- targeted events, % of the transfected cells [2, 5]: 1.05%±0.34
- increase of targeted event frequency [2, 6]: 12 fold

B2: ADCY9: engineered meganuclease (SEQ ID NO: 3) designed to cleave adenylate cyclase 9 gene (protein)
chain: MANTKYNEEFLLYLAGFVDGDGSIIAQIKPNQSYKFKHQLSLTFRVTQKTQRRWFLDKLVDEIGVGYVRDSGSVSNYDLSEIKPLHNFLTQLQPFLELKQKQANLVLKIIEQLPSAKESPDKFLEVCTWVDQVAALNDSKTRKTTSETVRAVLDSLSEKKKSSPAAGGSDKYNQALSKYNQALSKYNQALSGGGGSNKKFLLYLAGFVDSDGSIIAQIKPDQSYKFKHQLGLTFQVTQKTQRRWFLDKLVDRIGVGYVRDRGSVSDYILSEIKPLHNFLTQLQPFLKLKQKQANLVLKIIEQLPSAKESPDKFLEVCTWVDQVAALNDSKTRKTTSETVRAVLDSLSEKKKSSP
- targeted events, % of the transfected cells ([3]; 5-aza-2′deoxycytidine (0.2 μM)): 3.37%±0.66
- targeted events, % of the transfected cells [3, 5]: 0.70%±0.14
- increase of targeted event frequency [3, 6]: 4.8 fold
